Experimental data: ChEMBL document CHEMBL1275498, “Disposition, metabolism, and excretion of [14C]doripenem after a single 500-milligram intravenous infusion in healthy men” (Antimicrob Agents Chemother, 2008)

Legend:
[1] = Tmax in healthy man plasma assessed as doripenem-M-1 at 500 mg, iv administered as 1 hr infusion by LC-MS/MS analysis; type: ADME, organism-based; conditions: human, in vivo
[2] = AUC (0 to infinity) in healthy man plasma at 500 mg, iv administered as 1 hr infusion by LC-MS/MS analysis; type: ADME, organism-based; design: dose 500 mg, time infinity, route intravenous; conditions: male, human
[3] = Renal clearance in healthy man assessed as doripenem-M-1, dosed at 500 mg, iv administered as 1 hr infusion; type: ADME, organism-based, Kidney; conditions: human, in vivo
[4] = Renal clearance in healthy man dosed at 500 mg, iv administered as 1 hr infusion; type: ADME, organism-based, Kidney; conditions: male, human, in vivo
[5] = Half life in healthy man plasma assessed as doripenem-M-1 at 500 mg, iv administered as 1 hr infusion by LC-MS/MS analysis; type: ADME, organism-based; conditions: human, in vivo
[6] = Drug excretion in healthy man urine at 500 mg, iv administered as 1 hr infusion measured after 8 to 12 hrs by Liquid scintillation counting; type: ADME, organism-based; conditions: human, in vivo
[7] = Elimination rate constant in plasma of healthy man dosed at 500 mg, iv administered as 1 hr infusion; type: ADME, organism-based; conditions: male, human
[8] = Elimination rate constant in plasma of healthy man assessed as doripenem-M-1, dosed at 500 mg, iv administered as 1 hr infusion; type: ADME, organism-based; conditions: human, in vivo
[9] = Drug excretion in healthy man urine at 500 mg, iv administered as 1 hr infusion measured after 4 to 8 hrs by Liquid scintillation counting; type: ADME, organism-based; conditions: human, in vivo
[10] = Tmax in healthy man whole blood assessed as total compound-derived radioactivity at 500 mg, iv administered as 1 hr infusion by Liquid scintillation counting; type: ADME, organism-based; conditions: human, in vivo
[11] = AUC (last) in healthy man plasma assessed as doripenem-M-1 at 500 mg, iv administered as 1 hr infusion by LC-MS/MS analysis; type: ADME, organism-based; design: dose 500 mg, time 0 - last, route intravenous; conditions: human, in vivo
[12] = Cmax in healthy man plasma at 500 mg, iv administered as 1 hr infusion by LC-MS/MS analysis; type: ADME, organism-based; design: dose 500 mg, route intravenous; conditions: male, human
[13] = Tmax in healthy man plasma at 500 mg, iv administered as 1 hr infusion by LC-MS/MS analysis; type: ADME, organism-based; conditions: male, human
[14] = AUC (last) in healthy man whole blood assessed as total compound-derived radioactivity at 500 mg, iv administered as 1 hr infusion by Liquid scintillation counting; type: ADME, organism-based; design: dose 500 mg, time 0 - last, route intravenous; conditions: human, in vivo
[15] = Half life in healthy man plasma at 500 mg, iv administered as 1 hr infusion by LC-MS/MS analysis; type: ADME, organism-based; conditions: male, human
[16] = Cmax in healthy man plasma assessed as total compound-derived radioactivity at 500 mg, iv administered as 1 hr infusion by Liquid scintillation counting; type: ADME, organism-based; design: dose 500 mg, route intravenous; conditions: human, in vivo
[17] = AUC (last) in healthy man plasma assessed as total compound-derived radioactivity at 500 mg, iv administered as 1 hr infusion by Liquid scintillation counting; type: ADME, organism-based; design: dose 500 mg, time 0 - last, route intravenous; conditions: human, in vivo
[18] = Drug excretion in healthy man feces at 500 mg, iv administered as 1 hr infusion measured after 7 days by Liquid scintillation counting; type: ADME, organism-based; conditions: human, in vivo
[19] = Drug excretion in healthy man urine at 500 mg, iv administered as 1 hr infusion measured after 4 hrs by Liquid scintillation counting; type: ADME, organism-based; conditions: human, in vivo
[20] = Tmax in healthy man plasma assessed as total compound-derived radioactivity at 500 mg, iv administered as 1 hr infusion by Liquid scintillation counting; type: ADME, organism-based; conditions: human, in vivo
[21] = Clearance in healthy man plasma at 500 mg, iv administered as 1 hr infusion by LC-MS/MS analysis; type: ADME, organism-based; conditions: male, human
[22] = Cmax in healthy man plasma assessed as doripenem-M-1 at 500 mg, iv administered as 1 hr infusion by LC-MS/MS analysis; type: ADME, organism-based; design: dose 500 mg, route intravenous; conditions: human, in vivo
[23] = Half life in healthy man plasma assessed as total compound-derived radioactivity at 500 mg, iv administered as 1 hr infusion by Liquid scintillation counting; type: ADME, organism-based; conditions: human, in vivo
[24] = Elimination rate constant in plasma of healthy man assessed as total compound-derived radioactivity, dosed at 500 mg, iv administered as 1 hr infusion; type: ADME, organism-based; conditions: human, in vivo
[25] = AUC (0 to infinity) in healthy man plasma assessed as doripenem-M-1 at 500 mg, iv administered as 1 hr infusion by LC-MS/MS analysis; type: ADME, organism-based; design: dose 500 mg, time infinity, route intravenous; conditions: human, in vivo
[26] = Drug excretion in healthy man urine at 500 mg, iv administered as 1 hr infusion measured after 7 days by Liquid scintillation counting; type: ADME, organism-based; conditions: human, in vivo
[27] = Cmax in healthy man whole blood assessed as total compound-derived radioactivity at 500 mg, iv administered as 1 hr infusion by Liquid scintillation counting; type: ADME, organism-based; design: dose 500 mg, route intravenous; conditions: human, in vivo
[28] = Drug excretion in healthy man urine at 500 mg, iv administered as 1 hr infusion measured after 12 to 24 hrs by Liquid scintillation counting; type: ADME, organism-based; conditions: human, in vivo
[29] = Drug excretion in healthy man urine at 500 mg, iv administered as 1 hr infusion measured after 0 to 12 hrs by Liquid scintillation counting; type: ADME, organism-based; conditions: human, in vivo
[30] = AUC (last) in healthy man plasma at 500 mg, iv administered as 1 hr infusion by LC-MS/MS analysis; type: ADME, organism-based; design: dose 500 mg, time 0 - last, route intravenous; conditions: male, human
[31] = AUC (0 to infinity) in healthy man plasma assessed as total compound-derived radioactivity at 500 mg, iv administered as 1 hr infusion by Liquid scintillation counting; type: ADME, organism-based; design: dose 500 mg, route intravenous, time infinity; conditions: human, in vivo

`C[C@@H](O)[C@H]1C(=O)N2[C@@H]1[C@@H](C)C(S[C@@H]1CN[C@H](CNS(N)(=O)=O)C1)=[14C]2C(=O)O` [[14C]-DORIPENEM] showed a Tmax [1] of 1.01 h, an AUC(0-inf) [2] of 31800 ng·h/mL and a CLr [3] of 18.9 L/h. It also gave a CL renal at 1 h [4] of 208 mL/min, a t1/2 [5] of 2.54 h and a Drug uptake [6] of 1.62%. For the same compound, the k el at 1 h [7] was 0.000183 s⁻¹, the kel [8] was 0.275 h⁻¹ and the Drug uptake [9] was 6.69%. The Tmax [10] was 1.02 h, the AUC [11] was 4030 ng·h/mL and the Cmax [12] was 22900 ng/mL. It also gave a Tmax [13] of 1.02 h, an AUC [14] of 20200 ng·h/mL and a half-life [15] of 1.07 h. The Cmax [16] was 22100 ng/mL, the AUC [17] was 37500 ng·h/mL and the Drug uptake [18] was 0.72%. The Drug uptake [19] was 85.13%, the Tmax [20] was 1.02 h and the clearance [21] was 267 mL/min. For the same compound, the Cmax [22] was 1560 ng/mL, the t1/2 [23] was 1.59 h and the kel [24] was 0.438 h⁻¹. It also gave an AUC [25] of 4980 ng·h/mL, a Drug uptake [26] of 95.28% and a Cmax [27] of 13200 ng/mL. The Drug uptake [28] was 0.9%, the Drug uptake [29] was 93.44% and the AUC(0-t) at 1 h [30] was 31500 ng·h/mL. The AUC [31] was 39500 ng·h/mL.
